Consider one molecule from patent publication US20150182629A1, “STABLE COMPOSITIONS OF FESOTERODINE” (HETERO RESEARCH FOUNDATION, priority 2012, published 2015).

This data set can be described thus: Stability evaluation of drug-excipient blend (impurities initially and after storage). The class given is physicochemical. The procedure:
According to the present invention stability of drug-excipient blend was evaluated based on percentage w/w of 2-((R)-3-(diisopropylamino)-1-phenylpropyl)-4-(hydroxymethyl)phenol impurity (H-FTFRC-01) and total impurities present in drug-excipient blend, initially and after storage for one month at 40° C. and 75% relative humidity.

The structures appear in SMILES notation.

In the case of `CC(C)C(=O)Oc1ccc(CO)cc1[C@H](CCN(C(C)C)C(C)C)c1ccccc1.O=C(O)/C=C/C(=O)O` [Fesoterodine fumarate, isobutyric acid 2-((R)-3-diisopropylammonium-1phenylpropyl)-4-(hydroxymethyl) phenyl ester hydrogen fumarate], the H-FTFRC-01 impurity stood at 0.524 % w/w (40° C./75% RH, 1 month) and 0.284 % w/w (Initial). For the same molecule, the “Total Impurities” value is 1.245 % w/w (40° C./75% RH, 1 month) and 0.800 % w/w (Initial).
